Read-outs that look alike come from different tables or passages of the source.
How the values were obtained:
Format in all cases: cell-based, human
[1] = test system: senescent IMR90 ER:RAS cells (4-OHT-induced); assay: Nuclei count (Hoechst, high content imaging) senolytic assay, oncogene-induced senescence (OIS) model, senescent cells; conditions: for viability at 10 µM / viability at 4.677 µM / viability at 2.188 µM / viability at 1 µM / viability at 0.4677 µM / viability at 0.2188 µM / viability at 0.1 µM / viability at 0.04677 µM / viability at 0.02188 µM / viability at 0.01 µM: Homo sapiens; for viability at 10 µM: log (dose) [M] -5, 72 h; for viability at 2.188 µM: log (dose) [M] -5.66, 72 h; for viability at 1 µM: log (dose) [M] -6, 72 h
How it was run: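 Cells seeded, left 24 h, then dosed across a 10-point […] series (10 μM down to 10 nM) with DMSO control. After 72 h, wells were fixed, permeabilised and stained with Hoechst. Nuclei were counted by high-content imaging in senescent and non-senescent IMR90 ER:RAS cultures.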

[2] = test system: non-senescent control A549 cells; assay: Nuclei count senolytic assay, TIS model, non-senescent control cells; conditions: Homo sapiens, A549, Control cells, mean, read-out: Mean % Cell Survival; for viability at 10 µM: log (dose) [M] -5; for viability at 4.68 µM: log (dose) [M] -5.33; for viability at 2.19 µM: log (dose) [M] -5.66; for viability at 1 µM: log (dose) [M] -6; for viability at 0.468 µM: log (dose) [M] -6.33; for viability at 0.219 µM: log (dose) [M] -6.66; for viability at 0.1 µM: log (dose) [M] -7; for viability at 0.0468 µM: log (dose) [M] -7.33; for viability at 0.0219 µM: log (dose) [M] -7.66; for viability at 0.01 µM: log (dose) [M] -8
How it was run: (§1)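 Senescence in A549 cells is induced by 48 h of 100 μM etoposide followed by three days without drug, alongside non-senescent controls. Cells are seeded, rested 24 h, then exposed 72 h to compounds (10 nM–10 μM final, […] steps, triplicate) before nuclei are counted by imaging.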

[3] = test system: senescent A549 cells (etoposide-induced); assay: Nuclei count senolytic assay, therapy-induced senescence (TIS) model, senescent cells; conditions: Homo sapiens, A549, Senescent cells, mean, read-out: Mean % Cell Survival; for viability at 10 µM: log (dose) [M] -5; for viability at 4.68 µM: log (dose) [M] -5.33; for viability at 2.19 µM: log (dose) [M] -5.66; for viability at 1 µM: log (dose) [M] -6; for viability at 0.468 µM: log (dose) [M] -6.33; for viability at 0.219 µM: log (dose) [M] -6.66; for viability at 0.1 µM: log (dose) [M] -7; for viability at 0.0468 µM: log (dose) [M] -7.33; for viability at 0.0219 µM: log (dose) [M] -7.66; for viability at 0.01 µM: log (dose) [M] -8
How it was run: as §1

[4] = IMR-90, 72 h, Senescent, mean n=3 (Fig 3C), read-out: Mean % Cell Survival
[5] = IMR-90, 72 h, Senescent, log (dose) [M] -5.33, 72 h, mean n=3 (Fig 3C), read-out: Mean % Cell Survival
[6] = IMR-90, 72 h, Senescent, log (dose) [M] -6.33, 72 h, mean n=3 (Fig 3C), read-out: Mean % Cell Survival
[7] = IMR-90, 72 h, Senescent, log (dose) [M] -6.66, 72 h, mean n=3 (Fig 3C), read-out: Mean % Cell Survival
[8] = IMR-90, 72 h, Senescent, log (dose) [M] -7, 72 h, mean n=3 (Fig 3C), read-out: Mean % Cell Survival
[9] = IMR-90, 72 h, Senescent, log (dose) [M] -7.33, 72 h, mean n=3 (Fig 3C), read-out: Mean % Cell Survival
[10] = IMR-90, 72 h, Senescent, log (dose) [M] -7.66, 72 h, mean n=3 (Fig 3C), read-out: Mean % Cell Survival
[11] = IMR-90, 72 h, Senescent, log (dose) [M] -8, 72 h, mean n=3 (Fig 3C), read-out: Mean % Cell Survival
[12] = IMR-90, Senescent cells, log (dose) [M] -6.33, individual replicates, SUP FIG 4C, read-out: % Cell Survival
[13] = IMR-90, Senescent cells, log (dose) [M] -7.33, individual replicates, SUP FIG 4C, read-out: % Cell Survival
[14] = IMR-90, Senescent cells, log (dose) [M] -7.66, individual replicates, SUP FIG 4C, read-out: % Cell Survival
[15] = IMR-90, Senescent cells, log (dose) [M] -8, individual replicates, SUP FIG 4C, read-out: % Cell Survival
[16] = IMR-90, Senescent cells, log (dose) [M] -6.66, individual replicates, SUP FIG 4C, read-out: % Cell Survival

Row | Compound | viability at 10 µM [1, 4] [%] | viability at 4.677 µM [1, 5] [%] | viability at 2.188 µM [1, 4] [%] | viability at 1 µM [1, 4] [%] | viability at 0.4677 µM [1, 6] [%] | viability at 0.2188 µM [1, 7] [%] | viability at 0.1 µM [1, 8] [%] | viability at 0.04677 µM [1, 9] [%] | viability at 0.02188 µM [1, 10] [%] | viability at 0.01 µM [1, 11] [%] | viability at 10 µM [2] [%] | viability at 4.68 µM [2] [%] | viability at 2.19 µM [2] [%] | viability at 1 µM [2] [%] | viability at 0.468 µM [2] [%] | viability at 0.219 µM [2] [%] | viability at 0.1 µM [2] [%] | viability at 0.0468 µM [2] [%] | viability at 0.01 µM [2] [%] | viability at 10 µM [3] [%] | further results
1 | O=c1c(O)c(-c2ccc(O)cc2)oc2c(O)c(O)cc(O)c12 [Herbacetin, herbacetin] | 103 | 98.4 | 76.1 | 71.6 | 91.9 | 84.1 | 95.7 | 90.5 | 97.8 | 97.5 | 95.4 | 61.9 | 89.3 | 98.7 | 110 | 94.4 | 93.1 | 91.6 | 96.9 | 112 | viability at 0.4677 µM [1, 12]: 94.7%; viability at 0.04677 µM [1, 13]: 85.5%; viability at 0.02188 µM [1, 14]: 100%; viability at 0.01 µM [1, 15]: 91.5%; viability at 0.02188 µM ([1]; IMR-90, Senescent, log (dose) [M] -7.66, read-out: % Cell Survival): 104%; senolytic activity (in words) ([1]; experimental screen, OIS IMR90 ER:RAS): inactive; viability at 0.0219 µM [2]: 96.1%; viability at 4.68 µM [3]: 122%; viability at 2.19 µM [3]: 121%; viability at 1 µM [3]: 87.3%; viability at 0.468 µM [3]: 80.2%; viability at 0.219 µM [3]: 102%; viability at 0.1 µM [3]: 114%; viability at 0.0468 µM [3]: 106%; viability at 0.0219 µM [3]: 98.6%; viability at 0.01 µM [3]: 91.8%
2 | Cc1cc2c(C(C)C)c(O)c(O)c(C=O)c2c(O)c1-c1c(C)cc2c(C(C)C)c(O)c(O)c(C=O)c2c1O [Gossypol, gossypol] | 26.6 | 121 | 156 | 166 | 168 | 188 | 130 | 120 | 145 | 116 | 117 | 107 | 100 | 101 | 108 | 94.5 | 68 | 101 | 78.1 | 110 | viability at 0.2188 µM [1, 16]: 189%; viability at 0.04677 µM [1, 13]: 127%; viability at 4.68 µM [3]: 146%; viability at 2.19 µM [3]: 166%; viability at 1 µM [3]: 126%; viability at 0.468 µM [3]: 74.4%; viability at 0.219 µM [3]: 149%; viability at 0.1 µM [3]: 112%; viability at 0.0468 µM [3]: 69.1%; viability at 0.0219 µM [3]: 107%; viability at 0.01 µM [3]: 117%
3 | Cc1c(-c2c(F)cc(C(N)=O)c3[nH]c4c(c23)CC[C@H](C(C)(C)O)C4)cccc1-n1c(=O)c2cccc(F)c2n(C)c1=O [BMS 986142] | 97.6 | 143 | 96.7 | 102 | 101 | 100 | 98.6 | 109 | 95.3 | 97.5 | 116 | 101 | 96.6 | 101 | 98 | 37.1 | 98.9 | 33.5 | 99.7 | 77.3 | viability at 4.677 µM ([1]; IMR-90, Senescent cells, log (dose) [M] -5.33, individual replicates, SUP FIG 4C, read-out: % Cell Survival): 133%; viability at 0.4677 µM [1, 12]: 103%; viability at 0.2188 µM [1, 16]: 105%; viability at 0.1 µM ([1]; IMR-90, Senescent cells, log (dose) [M] -7, individual replicates, SUP FIG 4C, read-out: % Cell Survival): 91.6%; viability at 0.02188 µM [1, 14]: 94.3%; viability at 0.01 µM [1, 15]: 90.3%; viability at 0.01 µM ([1]; IMR-90, Senescent, log (dose) [M] -8, read-out: % Cell Survival): 111%; viability at 0.0219 µM [2]: 103%; viability at 4.68 µM [3]: 86.4%; viability at 2.19 µM [3]: 85.2%; viability at 1 µM [3]: 92.7%; viability at 0.468 µM [3]: 94.2%; viability at 0.219 µM [3]: 87.5%; viability at 0.1 µM [3]: 100%; viability at 0.0468 µM [3]: 95.4%; viability at 0.0219 µM [3]: 104%; viability at 0.01 µM [3]: 101%
